PMC8400955 (Pharmaceuticals, 2021)
Like-named read-outs stand apart in the source and are kept apart here.

Tests used:
[1] = 7-day repeated-dose PK in rats; assay type: in vivo, Sprague Dawley rats; details: rat, plasma
Experimental: Groups of Sprague Dawley rats (n = 5/sex/group; n = 3/sex/TK group) were orally administered ZB716 (20% PG, 5% Solutol, and 75% of 40% HP-β-CD in DI water) at dose levels of 10, 100, and 400 mg/kg/day for 7 days. […] Systemic exposure, expressed as Cmax and AUClast values, increased with dose in a less than dose-proportional manner on days 1 and 7 (Figure 2). A slight gender difference was observed; generally, systemic exposures were higher in females than in males (male/female AUClast ratio = 0.442:0.883). Accumulation was observed only in male animals given 400 mg/kg/day.
Four-to-six-week-old Sprague Dawley rats (Crl: CD (SD)) (SPF/VAF) were purchased from Beijing Vital River Laboratory Animal Technology, Co. Ltd.). Six-month-old beagle dogs were purchased from Beijing Marshall Biotechnology Co. Ltd. Animals were quarantined/acclimated for 2–6 weeks prior to dose initiation. Both Sprague Dawley rats and beagle dogs were given oral administration of ZB716 (20% PG, 5% Solutol, and 75% of 40% HP-β-CD in water) at different dose levels. After treatment with the test articles, whole blood was collected from each study animal by puncture of the tail vein (0.4 mL of whole blood from rats) and/or the peripheral vein (0.6 mL of whole blood from dogs) into tubes containing K2EDTA at each timepoint: pre-dose, and 0.5, 1, 2, 4, 8, and 24 h post-dose. The plasma samples were divided into 2 aliquots (approximately equal in volume) and stored frozen at −75 ± 15 °C within 2 h of the collection until analysis at Pharmaron, China.
The stock solution of ZB716 (5.0 mg/mL) and ZB716-d6 (1 mg/mL) in ACN:DI Water = 1:1 was prepared and stored at −20 ± 5 °C. The desired serial concentrations of working reference analyte solutions were achieved by diluting a stock analyte solution with 50% acetonitrile (0.1% formic acid) in water solution. The bioanalytical LC–MS/MS method was validated for quantitative determination of ZB716 in Sprague Dawley rat plasma and beagle dog plasma, with acceptable selectivity, sensitivity, calibration curve, precision, and accuracy. This method is applicable for the determination of ZB716 in Sprague Dawley rat plasma and beagle dog plasma, with a lower limit of quantification of 20.0 ng/mL, and an upper limit of quantification of 10,000 ng/mL.
Five microliters of diluted supernatant was injected into the LC–MS/MS system (Shimadzu LC30AD HPLC system with a SynergiTM 4 μm Fusion-RP 80 Å (50 × 2 mm) column using gradient elution and a Triple Quad 5500 mass spectrometer) for quantitative analysis. The mobile phases used were 0.1% formic acid in deionized water and 0.1% formic acid in acetonitrile. The pharmacokinetic parameters T1/2 (the biological half-life), Cmax (maximal concentration), Tmax (time at which Cmax is observed), and AUC (area under the plasma concentration–time curve) were calculated from the plasma concentration versus time data using WinNonlin (Phoenix^TM, version 8.1, Mountain View, CA, USA). All PK studies were conducted by Pharmaron in Beijing, China.

CYP2D6 = CYP2D6 (Homo sapiens, UniProt P10635); experiment: CYP inhibition in human liver microsomes, CYP2D6; assay type: in vitro ADME; details: HLM, marker substrate Dextromethorphan
Experimental: . The inhibition of CYP2B6 and 3A4 (when midazolam was used as the substrate) by ZB716 was not observed. The inhibitory potential of ZB716 on human CYP enzyme activities appears relatively low.
The final concentrations of ZB716 in the incubation system were 0, 0.05, 0.15, 0.5, 1.5, 5, and 15 µM (final organic solvent concentration ≤ 1%). […] . […] The concentrations of the isoform-specific metabolites derived from marker substrates were measured by UPLC–MS/MS. The IC50 values were calculated from the percentages of the rate of the metabolite formation relative to non-inhibited controls vs. the concentrations of ZB716 or positive control inhibitors. All incubations were performed in triplicate. The mean of the enzyme activity (% of non-inhibited control) for each concentration was plotted against the log inhibitor concentration, and fitted to an IC50 curve.

CYP1A2 = molecular target: T1, CYP1A2 (Homo sapiens, UniProt P05177); experiment: CYP phenotyping, recombinant CYP1A2
T1 sequence (P05177 1-516): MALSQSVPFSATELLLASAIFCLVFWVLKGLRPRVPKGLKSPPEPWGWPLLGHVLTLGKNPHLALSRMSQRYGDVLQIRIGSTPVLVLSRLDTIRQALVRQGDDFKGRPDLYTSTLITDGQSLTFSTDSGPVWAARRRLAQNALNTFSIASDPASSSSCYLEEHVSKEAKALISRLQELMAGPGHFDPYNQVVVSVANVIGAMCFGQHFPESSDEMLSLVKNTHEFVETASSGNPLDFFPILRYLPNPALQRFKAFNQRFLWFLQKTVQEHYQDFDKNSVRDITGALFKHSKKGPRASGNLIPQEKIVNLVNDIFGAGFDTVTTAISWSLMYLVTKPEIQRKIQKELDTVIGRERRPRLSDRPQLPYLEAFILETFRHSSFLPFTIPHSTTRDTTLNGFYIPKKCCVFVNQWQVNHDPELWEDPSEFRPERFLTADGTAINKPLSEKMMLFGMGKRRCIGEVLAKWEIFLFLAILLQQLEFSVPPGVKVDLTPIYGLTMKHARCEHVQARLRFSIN
Experimental: (§1) Bactosomes prepared from E. coli that heterologously expressed individual human CYP isoforms together with human CYP reductase were obtained from CYPEX LTD (Scotland, UK), and stored at −80 °C prior to use. […] Timepoints were taken at 0, 5, 10, 15, 20, and 30 min. Substrate disappearance was used to calculate intrinsic clearance (Clint) and half-life (t1/2). All incubations were performed in triplicate. […] The chemical inhibitors for CYP1A2, 2A6, 2B6, 2C8, 2C9, 2C19, 2D6, and 3A4 were furafylline, tranylcypromine, ticlopidine, montelukast, sulfaphenazole, N-3-benzylnirvanol, quinidine, and ketoconazole, respectively. Timepoints were collected at 0, 15, 30, 45, and 60 min, and the remaining percentage of the parent drug at each timepoint was calculated (the calculation details are available in the Supplementary Materials). All incubations were performed in triplicate.
The slope, k, was determined by linear regression of the natural logarithm of percent parent disappearance vs. incubation time curve. Peak areas for test article and internal standard were determined from extracted ion chromatograms. The peak area ratio was used to calculated for the results.
The half-life value (t1/2 rCYPi) was determined from the slope value:
Conversion of the t1/2 rCYPi (in min) into the intrinsic clearance (Clint rCYPi in μL/min/pmol) was done using the following equation: […]

CYP2C9 = CYP2C9 (Homo sapiens, UniProt P11712); experiment: CYP phenotyping, recombinant CYP2C9
Experimental: as §1
1.3.1 Intrinsic Clearance (Heterologously Expressed Human Cytochrome P450) All calculations were carried out using Microsoft Excel. The slope, k, was determined by linear regression of the natural logarithm of percent parent disappearance vs. incubation time curve. Peak areas for test article and internal standard were determined from extracted ion chromatograms. The peak area ratio was used to calculated for the results.
The half-life value (t1/2 rCYPi) was determined from the slope value: […]

[2] = female, Sprague Dawley (Crl: CD (SD)), po, 400 mg/kg/day, day 1, PO 400 mg/kg/day, F
[3] = female, Sprague Dawley, po, 10 mg/kg/day, day 1, PO 10 mg/kg/day, F
[4] = female, Sprague Dawley, po, 10 mg/kg/day, day 7, PO 10 mg/kg/day, F
[5] = female, Sprague Dawley, po, 100 mg/kg/day, day 7, PO 100 mg/kg/day, F
[6] = female, Sprague Dawley, po, 400 mg/kg/day, day 7, PO 400 mg/kg/day, F
[7] = male, Sprague Dawley (Crl: CD (SD)), po, 10 mg/kg/day, day 7, PO 10 mg/kg/day, M
[8] = male, Sprague Dawley (Crl: CD (SD)), po, 400 mg/kg/day, day 1, PO 400 mg/kg/day, M
[9] = male, Sprague Dawley, po, 10 mg/kg/day, day 1, PO 10 mg/kg/day, M
[10] = male, Sprague Dawley, po, 100 mg/kg/day, day 1, PO 100 mg/kg/day, M
[11] = male, Sprague Dawley, po, 100 mg/kg/day, day 7, PO 100 mg/kg/day, M
[12] = male, Sprague Dawley, po, 400 mg/kg/day, day 7, PO 400 mg/kg/day, M

Chain of CYP2C9 (P11712 whole entry): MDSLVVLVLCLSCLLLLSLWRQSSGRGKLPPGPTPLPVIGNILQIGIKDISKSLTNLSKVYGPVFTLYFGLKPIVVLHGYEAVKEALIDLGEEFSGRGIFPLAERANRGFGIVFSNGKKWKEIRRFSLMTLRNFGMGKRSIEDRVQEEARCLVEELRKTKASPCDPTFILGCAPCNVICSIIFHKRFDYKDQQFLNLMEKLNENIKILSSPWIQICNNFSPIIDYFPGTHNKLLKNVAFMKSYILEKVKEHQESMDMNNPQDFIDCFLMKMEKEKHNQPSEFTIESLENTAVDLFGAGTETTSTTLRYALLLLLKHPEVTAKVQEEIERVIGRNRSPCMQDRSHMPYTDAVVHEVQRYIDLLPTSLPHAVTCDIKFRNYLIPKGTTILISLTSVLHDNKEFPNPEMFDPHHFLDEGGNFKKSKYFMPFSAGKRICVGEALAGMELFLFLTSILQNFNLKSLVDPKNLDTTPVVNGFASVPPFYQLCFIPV
Chain of CYP2D6 (P10635 whole entry): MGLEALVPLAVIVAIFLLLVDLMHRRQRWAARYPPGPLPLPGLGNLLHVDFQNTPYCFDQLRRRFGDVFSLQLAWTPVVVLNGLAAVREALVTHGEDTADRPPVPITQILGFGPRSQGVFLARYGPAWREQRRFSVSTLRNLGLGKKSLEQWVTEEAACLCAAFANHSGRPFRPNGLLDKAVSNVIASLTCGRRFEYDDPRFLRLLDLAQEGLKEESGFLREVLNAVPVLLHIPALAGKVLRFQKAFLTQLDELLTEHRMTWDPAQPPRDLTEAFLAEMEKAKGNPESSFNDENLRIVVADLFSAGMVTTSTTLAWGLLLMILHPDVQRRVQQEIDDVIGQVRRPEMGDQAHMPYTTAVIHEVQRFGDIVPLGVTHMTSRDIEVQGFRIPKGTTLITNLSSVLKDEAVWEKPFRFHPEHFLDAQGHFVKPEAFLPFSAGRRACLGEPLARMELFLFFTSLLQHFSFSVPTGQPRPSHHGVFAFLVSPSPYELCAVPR

C[C@]12CC[C@@H]3c4ccc(B(O)O)cc4C[C@@H](CCCCCCCCC[S+]([O-])CCCC(F)(F)C(F)(F)F)[C@H]3[C@@H]1CC[C@@H]2O (stereo partly shown) [ZB716, fulvestrant-3-boronic acid]
Tmax ([1]; both sexes, Sprague Dawley, oral, 100 mg/kg/day, 10 and 100 mg/kg/day, day 1 and day 7, mostly, read-out: Tmax): 30 to 60 min
Tmax ([1]; both sexes, Sprague Dawley, oral, 400 mg/kg/day, day 1 and day 7, read-out: Tmax): ≤ 480 min
AUC(0-t) ([1]; female, Sprague Dawley (Crl: CD (SD)), po, 100 mg/kg/day, day 1, PO 100 mg/kg/day, F): 26700 ng·h/mL
AUC(0-t) [1, 2]: 27900 ng·h/mL
Cmax [1, 2]: 2770 ng/mL
Tmax ([1]; female, Sprague Dawley (Crl: CD (SD)), po, 400 mg/kg/day, day 1, PO 400 mg/kg/day, F, read-out: Tmax (median)): 480 min
AUC(0-t) [1, 3]: 1760 ng·h/mL
Cmax [1, 3]: 459 ng/mL
Tmax ([1]; female, Sprague Dawley, po, 10 mg/kg/day, day 1, PO 10 mg/kg/day, F, read-out: Tmax (median)): 30 min
AUC(0-t) [1, 4]: 2820 ng·h/mL
Cmax [1, 4]: 710 ng/mL
Tmax ([1]; female, Sprague Dawley, po, 10 mg/kg/day, day 7, PO 10 mg/kg/day, F, read-out: Tmax (median)): 30 min
Cmax ([1]; female, Sprague Dawley, po, 100 mg/kg/day, day 1, PO 100 mg/kg/day, F): 3350 ng/mL
Tmax ([1]; female, Sprague Dawley, po, 100 mg/kg/day, day 1, PO 100 mg/kg/day, F, read-out: Tmax (median)): 60 min
AUC(0-t) [1, 5]: 20700 ng·h/mL
Cmax [1, 5]: 2750 ng/mL
Tmax ([1]; female, Sprague Dawley, po, 100 mg/kg/day, day 7, PO 100 mg/kg/day, F, read-out: Tmax (median)): 30 min
AUC(0-t) [1, 6]: 37100 ng·h/mL
Cmax [1, 6]: 3710 ng/mL
Tmax ([1]; female, Sprague Dawley, po, 400 mg/kg/day, day 7, PO 400 mg/kg/day, F, read-out: Tmax (median)): 30 min
AUC(0-t) [1, 7]: 2260 ng·h/mL
Cmax [1, 7]: 322 ng/mL
Tmax ([1]; male, Sprague Dawley (Crl: CD (SD)), po, 10 mg/kg/day, day 7, PO 10 mg/kg/day, M, read-out: Tmax (median)): 60 min
AUC(0-t) [1, 8]: 15200 ng·h/mL
Cmax [1, 8]: 1920 ng/mL
Tmax ([1]; male, Sprague Dawley (Crl: CD (SD)), po, 400 mg/kg/day, day 1, PO 400 mg/kg/day, M, read-out: Tmax (median)): 480 min
AUC(0-t) [1, 9]: 1320 ng·h/mL
Cmax [1, 9]: 365 ng/mL
Tmax ([1]; male, Sprague Dawley, po, 10 mg/kg/day, day 1, PO 10 mg/kg/day, M, read-out: Tmax (median)): 30 min
AUC(0-t) [1, 10]: 11800 ng·h/mL
Cmax [1, 10]: 1420 ng/mL
Tmax ([1]; male, Sprague Dawley, po, 100 mg/kg/day, day 1, PO 100 mg/kg/day, M, read-out: Tmax (median)): 30 min
AUC(0-t) [1, 11]: 12900 ng·h/mL
Cmax [1, 11]: 1610 ng/mL
Tmax ([1]; male, Sprague Dawley, po, 100 mg/kg/day, day 7, PO 100 mg/kg/day, M, read-out: Tmax (median)): 30 min
AUC(0-t) [1, 12]: 32700 ng·h/mL
Cmax [1, 12]: 2340 ng/mL
Tmax ([1]; male, Sprague Dawley, po, 400 mg/kg/day, day 7, PO 400 mg/kg/day, M, read-out: Tmax (median)): 480 min
IC50 (CYP2D6): 12.5 µM
half-life at 2 µM (CYP1A2; human): 16.2 ± 2.2 min
Clint (CYP1A2; recombinant CYP1A2, 2 µM ZB716): 0.866 ± 0.120 µL/min/pmol CYP
half-life at 2 µM (CYP2C9; human): 18.6 ± 0.4 min
Clint (CYP2C9; recombinant CYP2C9, 2 µM ZB716): 0.746 ± 0.015 µL/min/pmol CYP
